# PMC5983663, “Design, Synthesis, and Biological Evaluation of Benzimidazole-Derived Biocompatible Copper(II) and Zinc(II) Complexes as Anticancer Chemotherapeutics” (International Journal of Molecular Sciences, 2018)
# Tests used:
# Assay in all cases: MTT assay
# Type in all cases: cell-based, human
# HepG2 (Liver) = settings: HepG2, 48 h; NA stands for Not Active
# Method: (§1) Human cancer cell lines HepG2 (Liver), SK-MEL-1 (Skin), HT 018 (Colon), HeLa (Cervical), and MDA-MB 231 (Breast) were procured from the American Type Culture Collection (Rockville, MD, USA). MDA-MB-231 and HepG2 cell lines were maintained in DMEM; whereas SK-MEL-1, HeLa, and HT-018 were maintained in RPMI medium. The complete growth medium was supplemented with 10% (v/v) heat-inactivated FCS, 2 mM L-glutamine, and antimycotic-antibiotic solution. All of the cells were maintained in a standard culture condition of 37 °C temperature and 95% humidified atmosphere containing 5% CO2. Cells were screened periodically for mycoplasma contamination.
# (§2) The novel complexes 1 and 2 were examined for their cytotoxicity against five different types of cancer cell lines viz., HepG2, SK-MEL-1, HT 018, HeLa, and MDA-MB 231 using a standard MTT reduction assay, according to Khan et al. (2012). Briefly, cells at a concentration of 1 × 10^6 cells/[…]/well were plated in 96-well plates and further grown in their respective medium containing 10% FCS. After 24 h, cells were incubated with 0–25 μM concentrations of test complexes or respective free ligands. Cells with 0.1% DMSO (vehicle control) and cisplatin (positive control) were also cultured under the same conditions. Cells only were used as negative control. Ensuing 48 h of incubation, old medium from treated cells was replaced with fresh medium. MTT reagent (5 mg/mL in PBS) was added to each well, and cells were further incubated for 2–3 h at 37 °C. After treatment, the supernatants were carefully removed, and 100 μL of DMSO was added to each well. Absorbance was measured at 620 nm in a multi-well plate reader, and drug sensitivity was expressed in terms of the concentration of drug required for a 50% reduction of cell viability (IC50).
# HeLa (Cervical) = settings: 48 h, NA stands for Not Active
# Method: as §1, §2
# MDA-MB 231 (Breast) = settings: MDA-MB 231, 48 h; NA stands for Not Active
# Method: as §1, §2
# HT018 (Colon) = settings: HT018, 48 h; NA stands for Not Active
# Method: as §1, §2
# SK-MEL-1 (Skin) = settings: SK-MEL-1, 48 h; NA stands for Not Active
# Method: as §1, §2
structure (smiles),measurement,setting,value
"N.N.[Cl][Pt][Cl] [Cisplatin, cisplatin, reference compound]",IC50,HepG2 (Liver),6 ± 0.4 µM
same,IC50,HeLa (Cervical),6 ± 0.6 µM
same,IC50,MDA-MB 231 (Breast),3.1 ± 0.2 µM
same,IC50,HT018 (Colon),5.7 ± 0.2 µM
same,IC50,SK-MEL-1 (Skin),5.6 ± 0.8 µM
